Assay results taken from paper PMC6440935, “Characterization and phase I study of CLR457, an orally bioavailable pan-class I PI3-kinase inhibitor” (Investigational New Drugs, 2018).

Test: First-in-human phase I study: plasma pharmacokinetics
Conditions: for Racc, geometric mean (CV%) / V/F, geometric mean (CV%): cycle 1 day 15
Protocol: The starting dose for CLR457 was 5 mg QD, based on preclinical toxicology studies in accordance with ICH guidelines, and was administered at the same time each day ±2 h in a fasted state. Various doses were planned up to 300 mg QD until MTD determination.
PK parameters including area under the curve (AUC), maximum serum concentration (Cmax), and time taken to reach Cmax (Tmax) were calculated using non-compartmental methods in Phoenix WinNonlin. [20]
[21] […] The Pharmacokinetic analysis set included all patients who had at least one blood sample providing evaluable PK data.

C[C@H]1OC(=O)N(c2cc(-c3cnc(N)nc3C(F)(F)F)nc(N3CCOCC3)n2)[C@H]1CO [CLR457]
Racc, geometric mean (CV%) (5 mg, n 2): 1.4 (33.4)
V/F, geometric mean (CV%) (5 mg, n 2): 43,139 (6.6) mL
Racc, geometric mean (CV%) (10 mg, n 3): 1.3 (24.3)
V/F, geometric mean (CV%) (10 mg, n 3): 66,520 (11.5) mL
Racc, geometric mean (CV%) (20 mg, n 4): 1.1 (28.4)
V/F, geometric mean (CV%) (20 mg, n 4): 55,193 (32.1) mL
Racc, geometric mean (CV%) (40 mg, n 5): 1.3 (38.4)
V/F, geometric mean (CV%) (40 mg, n 5): 115,503 (109.2) mL
V/F, geometric mean (CV%) (70 mg, n 4): 72,822 (49.9) mL
Racc, geometric mean (CV%) (70 mg, n 5): 1.4 (29.5)
Racc, geometric mean (CV%) (100 mg, n 4): 1.3 (37.0)
V/F, geometric mean (CV%) (100 mg, n 4): 67,311 (38.2) mL
Steady state (repeated daily dosing): reached by C1D15
